22 molecules from patent US7511065B2, “Mixed lineage kinase modulators” (Eli Lilly and Company, priority 2002, dated 2009) can be followed below.

Molecules are shown by their SMILES. Structures can show the parent of a compound that is named as a salt.

T1 sequence (Q9NYL2 1-455 isoform Q9NYL2-2): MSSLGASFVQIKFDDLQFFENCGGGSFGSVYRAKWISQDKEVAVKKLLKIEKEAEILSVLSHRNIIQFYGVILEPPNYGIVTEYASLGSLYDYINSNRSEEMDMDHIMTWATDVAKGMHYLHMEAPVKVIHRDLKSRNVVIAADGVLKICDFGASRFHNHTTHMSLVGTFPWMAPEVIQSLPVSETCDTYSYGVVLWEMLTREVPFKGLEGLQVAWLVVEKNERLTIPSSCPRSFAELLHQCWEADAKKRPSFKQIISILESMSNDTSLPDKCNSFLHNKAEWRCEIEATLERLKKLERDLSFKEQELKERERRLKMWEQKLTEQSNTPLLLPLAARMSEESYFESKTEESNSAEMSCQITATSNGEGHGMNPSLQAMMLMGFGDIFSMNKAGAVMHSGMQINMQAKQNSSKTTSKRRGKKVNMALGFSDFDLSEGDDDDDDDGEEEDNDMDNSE

The assay addresses T1, MLK-7 (Homo sapiens, UniProt Q9NYL2).
T1 construct: GST; His tag; made in house; host or cells: Sf9 insect cells (baculovirus, pVL1392)
Kind of assay: In vitro assay of purified MLK-7 kinase activity (33P transfer from ATP to myelin basic protein). Type of assay: biochemical. The settings on record: recombinant GST-tagged MLK-7 at 1 nm, 30 uM ATP, 5 uM MBP substrate, 2 hours room temperature; read-out: MLK7 IC50. The method, boiled down: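 GST/His-tagged MLK-7 from Sf9 (baculovirus), 1 nM, with 5 uM MBP, 30 uM ATP plus 33P, 5 mM MgCl2, 2 mM DTT, 4% DMSO in 44 mM HEPES pH 7.4; 2 h at room temperature, stopped with phosphoric acid. Filter-bound 33P counted; IC50 for reduced phosphate transfer, Ki via Cheng-Prusoff.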
In the case of `O=C(c1ccc(-c2ccc3c(-c4c(-c5ccccn5)nn5c4CCC5)ccnc3c2)cc1)N1CCCCC1` [Example 122, Piperidin-1-yl-{4-[4-(2-pyridin-2-yl-5,6-dihydro-4H-pyrrolo[1,2-b]pyrazol-3-yl)-quinolin-7-yl]-phenyl}-methanone], the half-maximal inhibitory concentration (IC50) was no more than 100 nM.

In the case of `O=C(c1ccc(-c2ccc3c(-c4c(-c5ccccn5)nn5c4CCC5)ccnc3c2)cc1)N1CCSCC1` [Example 123, {4-[4-(2-Pyridin-2-yl-5,6-dihydro-4H-pyrrolo[1,2-b]pyrazol-3-yl)-quinolin-7-yl]-phenyl}-thiomorpholin-4-yl-methanone], the half-maximal inhibitory concentration (IC50) was no more than 100 nM.

With `O=C(c1ccc(-c2ccc3c(-c4c(-c5ccccn5)nn5c4CCC5)ccnc3c2)cc1)N1CCOCC1` [Example 124, Morpholin-4-yl-{4-[4-(2-pyridin-2-yl-5,6-dihydro-4H-pyrrolo[1,2-b]pyrazol-3-yl)-quinolin-7-yl]-phenyl}-methanone], the IC50 is no more than 100 nM.

On to `NC(=O)CNC(=O)c1ccc(-c2ccc3c(-c4c(-c5ccccn5)nn5c4CCC5)ccnc3c2)cc1` [Example 125, N-Carbamoylmethyl-4-[4-(2-pyridin-2-yl-5,6-dihydro-4H-pyrrolo[1,2-b]pyrazol-3-yl)-quinolin-7-yl]-benzamide], for which the IC50 is no more than 100 nM.

`CC(C)NCCNC(=O)c1ccc(-c2ccc3c(-c4c(-c5ccccn5)nn5c4CCC5)ccnc3c2)cc1` [Example 126, N-(2-Isopropylamino-ethyl)-4-[4-(2-pyridin-2-yl-5,6-dihydro-4H-pyrrolo[1,2-b]pyrazol-3-yl)-quinolin-7-yl]-benzamide]: the half-inhibitory concentration (IC50) was no more than 100 nM.

With `CCOC(=O)CCNC(=O)c1ccc(-c2ccc3c(-c4c(-c5ccccn5)nn5c4CCC5)ccnc3c2)cc1` [Example 128, 3-{4-[4-(2-Pyridin-2-yl-5,6-dihydro-4H-pyrrolo[1,2-b]pyrazol-3-yl)-quinolin-7-yl]-benzoylamino}-propionic Acid Ethyl Ester], the IC50 was no more than 100 nM.

As for `CC(C)(C)OC(=O)N1CCCC(NC(=O)c2ccc(-c3ccc4c(-c5c(-c6ccccn6)nn6c5CCC6)ccnc4c3)cc2)C1` (stereo not shown) [Example 130, 3-{4-[4-(2-Pyridin-2-yl-5,6-dihydro-4H-pyrrolo[1,2-b]pyrazol-3-yl)-quinolin-7-yl]-benzoylamino}-piperidine-1-carboxylic Acid tert-Butyl Ester], the IC50 is no more than 100 nM.

On to `CC(C)(C)OC(=O)NCCCC[C@H](NC(=O)c1ccc(-c2ccc3c(-c4c(-c5ccccn5)nn5c4CCC5)ccnc3c2)cc1)C(=O)OC(C)(C)C` [Example 131, 6-tert-Butoxycarbonylamino-2(S)-{4-[4-(2-pyridin-2-yl-5,6-dihydro-4H-pyrrolo[1,2-b]pyrazol-3-yl)-quinolin-7-yl]-benzoylamino}-hexanoic acid tert-butyl ester], for which the IC50 is no more than 1000 nM.

For `O=C(NCCN1CCOCC1)c1ccc(-c2ccc3c(-c4c(-c5ccccn5)nn5c4CCC5)ccnc3c2)cc1` [Example 132, N-(2-Morpholin-4-yl-ethyl)-4-[4-(2-pyridin-2-yl-5,6-dihydro-4H-pyrrolo[1,2-b]pyrazol-3-yl)-quinolin-7-yl]-benzamide], the IC50 is no more than 100 nM.

As to `O=C(c1ccc(-c2ccc3c(-c4c(-c5ccccn5)nn5c4CCC5)ccnc3c2)cc1)N1CCS(=O)(=O)CC1` [Example 133, (1,1-Dioxo-1λ^6-thiomorpholin-4-yl)-{4-[4-(2-pyridin-2-yl-5,6-dihydro-4H-pyrrolo[1,2-b]pyrazol-3-yl)-quinolin-7-yl]-phenyl}-methanone], the IC50 is no more than 100 nM.

On to `CSC[C@@H](NC(=O)c1ccc(-c2ccc3c(-c4c(-c5ccccn5)nn5c4CCC5)ccnc3c2)cc1)C(=O)OC(C)(C)C` [Example 134, 3-Methylsulfanyl-2(S)-{4-[4-(2-pyridin-2-yl-5,6-dihydro-4H-pyrrolo[1,2-b]pyrazol-3-yl)-quinolin-7-yl]-benzoylamino}-propionic Acid tert-Butyl Ester], for which the IC50 is no more than 1000 nM.

As to `CC(C)(C)OC(=O)CC[C@H](NC(=O)c1ccc(-c2ccc3c(-c4c(-c5ccccn5)nn5c4CCC5)ccnc3c2)cc1)C(=O)OC(C)(C)C` [Example 135, 2(S)-{4-[4-(2-Pyridin-2-yl-5,6-dihydro-4H-pyrrolo[1,2-b]pyrazol-3-yl)-quinolin-7-yl]-benzoylamino}-pentanedioic Acid Di-tert-Butyl Ester], the IC50 was no more than 1000 nM.

In the case of `CN(C)C(=O)c1ccc(-c2ccc3c(-c4c(-c5ccccn5)nn5c4CCC5)ccnc3c2)cc1` [Example 136, N,N-Dimethyl-4-[4-(2-pyridin-2-yl-5,6-dihydro-4H-pyrrolo[1,2-b]pyrazol-3-yl)-quinolin-7-yl]-benzamide], the IC50 was no more than 100 nM.

As to `CC(C)(C)OC(=O)CCNC(=O)c1ccc(-c2ccc3c(-c4c(-c5ccccn5)nn5c4CCC5)ccnc3c2)cc1` [Example 137, 3-{4-[4-(2-Pyridin-2-yl-5,6-dihydro-4H-pyrrolo[1,2-b]pyrazol-3-yl)-quinolin-7-yl]-benzoylamino}-propionic Acid tert-Butyl Ester], the IC50 is no more than 100 nM.

In the case of `CNC(=O)c1ccc(-c2ccc3c(-c4c(-c5ccccn5)nn5c4CCC5)ccnc3c2)cc1` [Example 138, N-Methyl-4-[4-(2-pyridin-2-yl-5,6-dihydro-4H-pyrrolo[1,2-b]pyrazol-3-yl)-quinolin-7-yl]-benzamide], the IC50 was no more than 100 nM.

For `CS(=O)(=O)CCNC(=O)c1ccc(-c2ccc3c(-c4c(-c5ccccn5)nn5c4CCC5)ccnc3c2)cc1` [Example 139, N-(2-Methanesulfonyl-ethyl)-4-[4-(2-pyridin-2-yl-5,6-dihydro-4H-pyrrolo[1,2-b]pyrazol-3-yl)-quinolin-7-yl]-benzamide], the concentration for half-maximal inhibition (IC50) is no more than 100 nM.

Turning to `CN(C)/C=N/C(=O)c1ccc(-c2ccc3c(-c4c(-c5ccccn5)nn5c4CCC5)ccnc3c2)cc1` [Example 140, N-Dimethylaminomethylene-4-[4-(2-pyridin-2-yl-5,6-dihydro-4H-pyrrolo[1,2-b]pyrazol-3-yl)-quinolin-7-yl]-benzamide], the IC50 is no more than 100 nM.

In the case of `NC(=O)c1ccc(-c2ccc3c(-c4c(-c5ccccn5)nn5c4CCC5)ccnc3c2)cc1` [Example 141, 4-[4-(2-Pyridin-2-yl-5,6-dihydro-4H-pyrrolo[1,2-b]pyrazol-3-yl)-quinolin-7-yl]-benzamide], the IC50 is no more than 100 nM.

For the molecule `NCCCC[C@H](NC(=O)c1ccc(-c2ccc3c(-c4c(-c5ccccn5)nn5c4CCC5)ccnc3c2)cc1)C(=O)O` [Example 143, 6-Amino-2(S)-{4-[4-(2-pyridin-2-yl-5,6-dihydro-4H-pyrrolo[1,2-b]pyrazol-3-yl)-quinolin-7-yl]-benzoylamino}-hexanoic acid, Ditrifluoroacetic Acid Salt], the IC50 was no more than 100 nM.

With `CSC[C@@H](NC(=O)c1ccc(-c2ccc3c(-c4c(-c5ccccn5)nn5c4CCC5)ccnc3c2)cc1)C(=O)O` [Example 145, 3-Methylsulfanyl-2(S)-{4-[4-(2-pyridin-2-yl-5,6-dihydro-4H-pyrrolo[1,2-b]pyrazol-3-yl)-quinolin-7-yl]-benzoylamino}-propionic Acid Trifluoroacetic Acid Salt], the half-inhibitory concentration (IC50) is no more than 100 nM.

On to `O=C(O)CC[C@H](NC(=O)c1ccc(-c2ccc3c(-c4c(-c5ccccn5)nn5c4CCC5)ccnc3c2)cc1)C(=O)O` [Example 146, 2(S)-{4-[4-(2-Pyridin-2-yl-5,6-dihydro-4H-pyrrolo[1,2-b]pyrazol-3-yl)-quinolin-7-yl]-benzoylamino}-pentanedioic Acid Trifluoroacetic Acid Salt], for which the IC50 was no more than 100 nM.

Turning to `O=C(O)CCNC(=O)c1ccc(-c2ccc3c(-c4c(-c5ccccn5)nn5c4CCC5)ccnc3c2)cc1` [Example 147, 3-{4-[4-(2-Pyridin-2-yl-5,6-dihydro-4H-pyrrolo[1,2-b]pyrazol-3-yl)-quinolin-7-yl]-benzoylamino}-propionic Acid Trifluoroacetic Acid Salt], the IC50 was no more than 100 nM.
